This passage reports IC50 results from US7619089B2, “Derivatives of N-heterocyclylmethylbenzamides, preparation method thereof and application of same in therapeutics” (Sanofi-Aventis, priority 2003, dated 2009).

The target of test [1] is T1, native human transporter glyt1 (Homo sapiens, UniProt P48067).
T1 construct: expressing the native human transporter glyt1; endogenous in cells; host or cells: SK-N-MC cells (human neuroepithelial cells)
T1 sequence (P48067 1-706): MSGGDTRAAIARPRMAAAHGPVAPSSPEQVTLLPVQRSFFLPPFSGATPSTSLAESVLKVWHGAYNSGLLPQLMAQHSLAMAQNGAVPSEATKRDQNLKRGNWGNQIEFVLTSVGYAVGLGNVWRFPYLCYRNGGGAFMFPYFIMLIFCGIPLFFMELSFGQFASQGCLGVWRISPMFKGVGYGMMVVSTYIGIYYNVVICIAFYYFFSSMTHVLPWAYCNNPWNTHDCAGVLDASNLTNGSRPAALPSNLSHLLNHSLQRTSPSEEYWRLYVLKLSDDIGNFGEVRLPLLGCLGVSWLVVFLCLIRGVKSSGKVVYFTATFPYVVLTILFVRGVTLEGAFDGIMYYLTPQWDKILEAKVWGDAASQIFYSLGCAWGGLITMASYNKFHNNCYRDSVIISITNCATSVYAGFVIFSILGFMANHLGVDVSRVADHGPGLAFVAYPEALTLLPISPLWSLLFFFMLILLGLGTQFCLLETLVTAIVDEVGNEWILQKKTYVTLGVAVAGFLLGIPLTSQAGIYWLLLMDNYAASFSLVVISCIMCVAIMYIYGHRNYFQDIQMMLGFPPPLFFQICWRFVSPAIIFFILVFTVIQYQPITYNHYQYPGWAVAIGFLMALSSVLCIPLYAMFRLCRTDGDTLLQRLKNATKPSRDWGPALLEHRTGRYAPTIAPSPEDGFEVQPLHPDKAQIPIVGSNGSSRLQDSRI
Description: Transport of glycine ([14C]glycine capture) in SK-N-MC cells expressing the native human transporter glyt1. Format: cell-based. The note with it: 10 μM [14C]glycine, 10 min at 37° C., pH 7.4, read-out: IC50, concentration which reduces by 50% the specific capture of glycine. How it is done:
Study of the Transport of Glycine in SK-N-MC Cells Expressing the Native Human Transporter Glyt1.
The capture of [^14C]glycine is studied in SK-N-MC cells (human neuroepithelial cells) expressing the native human transporter glyt1 by measuring the radioactivity incorporated in the presence or in the absence of the test compound. The cells are cultured in a monolayer for 48 h in plates pretreated with fibronectin at 0.02%. On the day of the experiment, the culture medium is removed and the cells are washed with a Krebs-HEPES ([4-(2-hydroxyethyl)piperazine]1-ethanesulfonic acid) buffer at pH 7.4. After a preincubation of 10 min at 37° C. in the presence either of buffer (control batch), or of test compound at various concentrations, or of 10 mM glycine (determination of the nonspecific capture), 10 μM [^14C]glycine (specific activity 112 mCi/mmol) are then added. The incubation is continued for 10 min at 37° C., and the reaction is stopped by 2 washes with a Krebs-HEPES buffer at pH 7.4. The radioactivity incorporated by the cells is then estimated after adding 100 μl of liquid scintillant and stirring for 1 h. The counting is performed on a Microbeta Tri-lux™ counter. The efficacy of the compound is determined by the IC50, the concentration of the compound which reduces by 50% the specific capture of glycine, defined by the difference in radioactivity incorporated by the control batch and the batch which received the glycine at 10 mM.

The next test deals with T2, transporter glyt2 (Mus musculus, UniProt Q761V0).
T2 construct: from tissue; host or cells: mouse spinal cord homogenate (Iffa Crédo OF1 male mice)
T2 sequence (Q761V0 1-799): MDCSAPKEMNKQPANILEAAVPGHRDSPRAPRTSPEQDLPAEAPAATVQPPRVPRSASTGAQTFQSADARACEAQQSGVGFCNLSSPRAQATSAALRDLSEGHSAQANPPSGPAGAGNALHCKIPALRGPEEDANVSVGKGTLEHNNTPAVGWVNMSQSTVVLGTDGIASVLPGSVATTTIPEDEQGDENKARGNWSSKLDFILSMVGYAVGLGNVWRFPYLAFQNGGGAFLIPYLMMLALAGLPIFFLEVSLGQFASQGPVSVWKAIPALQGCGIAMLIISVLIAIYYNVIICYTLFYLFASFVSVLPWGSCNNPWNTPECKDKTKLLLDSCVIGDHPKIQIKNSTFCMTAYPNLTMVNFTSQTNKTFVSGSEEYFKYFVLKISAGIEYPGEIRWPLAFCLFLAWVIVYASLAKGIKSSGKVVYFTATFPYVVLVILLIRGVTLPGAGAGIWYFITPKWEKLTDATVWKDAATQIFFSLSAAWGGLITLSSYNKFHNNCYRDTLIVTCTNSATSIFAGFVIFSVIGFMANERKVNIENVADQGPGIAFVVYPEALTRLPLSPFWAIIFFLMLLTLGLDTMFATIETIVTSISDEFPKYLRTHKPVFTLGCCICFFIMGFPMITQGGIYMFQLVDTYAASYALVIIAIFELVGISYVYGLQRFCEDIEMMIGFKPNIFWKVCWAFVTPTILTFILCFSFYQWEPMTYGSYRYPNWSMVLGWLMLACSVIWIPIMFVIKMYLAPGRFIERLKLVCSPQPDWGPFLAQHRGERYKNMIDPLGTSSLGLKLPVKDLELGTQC
Description: Transport of glycine ([14C]glycine capture) in mouse spinal cord homogenate. The following applies: 10 μM [14C]glycine, 10 min at 25° C., pH 7.4, read-out: IC50, concentration reducing by 50% the specific capture of glycine. Format: biochemical. From the text:
Study of the Transport of Glycine in Mouse Spinal Cord Homogenate
The capture of [^14C]glycine by the transporter glyt2 is studied in mouse spinal cord homogenate by measuring the radioactivity incorporated in the presence or in the absence of the compound to be studied.
After the animals have been humanely killed (Iffa Crédo OF1 male mice weighing 20 to 25 g on the day of the experiment), the spinal cord of each animal is rapidly removed, weighed and stored on ice. The samples are homogenized in a Krebs-HEPES ([4-(2-hydroxyethyl)piperazine]1-ethanesulfonic acid) buffer, pH 7.4, at a rate of 25 ml/g of tissue.
50 μl of homogenate are preincubated for 10 min at 25° C. in the presence of Krebs-HEPES buffer, pH 7.4 and of compound to be studied at various concentrations, or of 10 mM glycine in order to determine the nonspecific capture. The [^14C]glycine (specific activity=112 mCi/mmol) is then added for 10 min at 25° C. at the final concentration of 10 μM. The reaction is stopped by filtration under vacuum and the radioactivity is estimated by solid scintillation by counting on a Microbeta Tri-lux™ counter.
The efficacy of the compound is determined by the concentration IC50 capable of reducing by 50% the specific capture of glycine, defined by the difference in radioactivity incorporated by the control batch and the batch which received the 10 mM glycine.

Counter-ions that a name gives are not always drawn.

As to `O=C(N[C@@H](c1ccccc1)[C@@H]1CC2CCN1CC2)c1c(Cl)ccc(C(F)(F)F)c1Cl` [Compound No. 17], the IC50 worked out at 1 nM in test [1] and 690 nM at transporter glyt2.
Take `O=C(NC(c1ccccc1)C1CC2CCN1CC2)c1c(Cl)ccc(C(F)(F)F)c1Cl` (stereo not drawn) [Compound No. 4, threo-2,6-Dichloro-N-[(1-azabicyclo[2.2.2]oct-2-yl)phenylmethyl]-3-trifluoromethylbenzamide hydrochloride 1:1]: the IC50 in test [1] came out at 4 nM.
On the same count and under the same terms, in the case of `O=C(NC(c1ccccc1)C1CC2CCN1CC2)c1cccc(C(F)(F)F)c1Cl` (stereo not drawn) [Compound No. 3, threo-2-Chloro-N-[(1-azabicyclo[2.2.2]oct-2-yl)phenyl-methyl]-3-trifluoromethylbenzamide hydrochloride 1:1] it was 17 nM; in that of `O=C(NC(c1ccc(F)cc1)C1CC2CCN1CC2)c1c(Cl)ccc(C(F)(F)F)c1Cl` (stereo not drawn) [Compound No. 26, threo-N-[1-Azabicyclo[2.2.2]oct-2-yl(4-fluorophenyl)-methyl]-2,6-dichloro-3-(trifluoromethyl)benzamide hydrochloride 1:1], 70 nM; in that of `C=CC1CN2CCC1CC2C(NC(=O)c1cccc(C(F)(F)F)c1Cl)c1ccnc2ccccc12` [Compound No. 14, 2-Chloro-N-(8α,9S)cinchonan-9-yl)-3-trifluoromethyl-benzamide hydrochloride 2:1], 70 nM.
